US20110160175A1, “18,21-Didesoxymacbecin Derivatives for the Treatment of Cancer” (priority 2006, published 2011)

Assays:
Hsp90 = Hsp90 (Homo sapiens, UniProt P07900); details: cited from earlier work
[1] = tested on: panel of human tumour cell lines; assay: Monolayer proliferation assay, mean IC70 across the cell line panel; type: cell-based; details: geometric mean of all replicates across the 6 cell lines; concentration inhibiting cell growth by 70%
Method: In vitro evaluation of compounds for anticancer activity in a panel of human tumour cell lines in a monolayer proliferation assay were carried out at the Oncotest Testing Facility, Institute for Experimental Oncology, Oncotest GmbH, Freiburg.
The Oncotest cell lines were established from human tumor xenografts as described by Roth et al., (1999). The origin of the donor xenografts was described by Fiebig at al., (1999). Other cell lines were either obtained from the NCl (DU145, MCF-7) or purchased from DSMZ, Braunschweig, Germany.
All cell lines, unless otherwise specified, were grown at 37° C. in a humidified atmosphere (95% air, 5% CO2) in a ‘ready-mix’ medium containing RPMI 1640 medium, 10% fetal calf serum, and 0.1 mg/mL gentamicin (PAA, Cölbe, Germany). […]
Briefly, cells were harvested from exponential phase cultures by trypsinization, counted and plated in 96 well flat-bottomed microtitre plates at a cell density dependent on the cell line (5-10.000 viable cells/well). […] After thawing the plates, fluorescence was measured using the Cytofluor 4000 microplate reader (excitation 530 nm, emission 620 nm), giving a direct relationship to the total number of viable cells. Growth inhibition may be expressed as treated/control×100 (% T/C). […]

| Structure (SMILES) | binding affinity to Hsp90, fold greater than 17-AAG (Hsp90; relative to 17-AAG) | binding affinity to Hsp90, fold greater than geldanamycin (Hsp90; relative to geldanamycin) | average IC70 value across the cell-line panel [1] |
| --- | --- | --- | --- |
| CO[C@H]1C[C@H](C)Cc2cc(O)cc(c2)NC(=O)/C=C/CC[C@H](OC)[C@@H](OC(N)=O)/C(C)=C/[C@H](C)[C@H]1O [KOSN1559] | 8 fold | 4 fold | – |
| CO[C@H]1[C@@H](OC)C[C@H](C)[C@@H](OC)C2=CC(=O)C=C(NC(=O)/C(C)=C/C=C\[C@H](C)[C@@H](OC(N)=O)/C(C)=C/[C@@H]1C)C2=O [macbecin] | – | – | 0.21 µg/mL |
